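Five concentrations, 48 hours, 96-well plates. TGI: concentration producing complete growth inhibition.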
Key:
Assay in all cases: inhibition of tumour cell growth, NCI panel, 48 h
SF-295 CNS = test system: SF-295 CNS
HS 578T breast = test system: HS 578T breast
SR leukemia = test system: SR leukemia
M14 melanoma = test system: M14 melanoma
786-0 renal = test system: 786-0 renal
HOP-92 NSCLC = test system: HOP-92 NSCLC
PC-3 prostate = test system: PC-3 prostate
MOLT-4 leukemia = test system: MOLT-4 leukemia
HCT-116 colon = test system: HCT-116 colon
RXF 393 renal = test system: RXF 393 renal
MDA-MB-231 breast = test system: MDA-MB-231 breast
NCI-H522 lung = test system: NCI-H522 lung
NCI-H460 lung = test system: NCI-H460 lung
T-47D breast = test system: T-47D breast
OVCAR-3 ovarian = test system: OVCAR-3 ovarian
BT-549 breast = test system: BT-549 breast
SNB-19 CNS = test system: SNB-19 CNS
UO-31 renal = test system: UO-31 renal
MALME-3M melanoma = test system: MALME-3M melanoma
A498 renal = test system: A498 renal
SK-OV-3 ovarian = test system: SK-OV-3 ovarian
IGROV1 ovarian = test system: IGROV1 ovarian
ACHN renal = test system: ACHN renal
MDA-MB-435 = test system: MDA-MB-435
RPMI-8226 leukemia = test system: RPMI-8226 leukemia
CAKI-1 renal = test system: CAKI-1 renal
SF-539 CNS = test system: SF-539 CNS
EKVX NSCLC = test system: EKVX NSCLC
COLO 205 colon = test system: COLO 205 colon
SW-620 colon = test system: SW-620 colon
MCF7 breast = test system: MCF7 breast
CCRF-CEM leukemia = test system: CCRF-CEM leukemia
SNB-75 CNS = test system: SNB-75 CNS
NCI-H226 lung = test system: NCI-H226 lung
KM12 colon = test system: KM12 colon
HT29 colon = test system: HT29 colon
DU-145 prostate = test system: DU-145 prostate
K-562 leukemia = test system: K-562 leukemia
OVCAR-8 ovarian = test system: OVCAR-8 ovarian
SF-268 CNS = test system: SF-268 CNS
SK-MEL-2 melanoma = test system: SK-MEL-2 melanoma
SK-MEL-28 melanoma = test system: SK-MEL-28 melanoma
HCT-15 colon = test system: HCT-15 colon
LOX IMVI melanoma = test system: LOX IMVI melanoma
NCI-H23 lung = test system: NCI-H23 lung
OVCAR-4 ovarian = test system: OVCAR-4 ovarian
HOP-62 NSCLC = test system: HOP-62 NSCLC
OVCAR-5 ovarian = test system: OVCAR-5 ovarian
UACC-257 melanoma = test system: UACC-257 melanoma
SN12C renal = test system: SN12C renal
A549 NSCLC = test system: A549 NSCLC
U251 CNS = test system: U251 CNS
NCI/ADR-RES ovarian = test system: NCI/ADR-RES ovarian
TK-10 renal = test system: TK-10 renal
SK-MEL-5 melanoma = test system: SK-MEL-5 melanoma
HCC-2998 colon = test system: HCC-2998 colon
UACC-62 melanoma = test system: UACC-62 melanoma
MDA-N = test system: MDA-N

Measured: TGI

O=c1[nH]c(=O)n(C2C(CO)OC(CO)C2O)cc1F (stereo not drawn)
> 100 µM: SF-295 CNS | HS 578T breast | SR leukemia | M14 melanoma | 786-0 renal | HOP-92 NSCLC | PC-3 prostate | MOLT-4 leukemia | HCT-116 colon | RXF 393 renal | MDA-MB-231 breast | NCI-H522 lung | NCI-H460 lung | T-47D breast | OVCAR-3 ovarian | BT-549 breast | SNB-19 CNS | UO-31 renal | MALME-3M melanoma | A498 renal | SK-OV-3 ovarian | IGROV1 ovarian | ACHN renal | MDA-MB-435 | RPMI-8226 leukemia | CAKI-1 renal | SF-539 CNS | EKVX NSCLC | COLO 205 colon | SW-620 colon | MCF7 breast | CCRF-CEM leukemia | SNB-75 CNS | NCI-H226 lung | KM12 colon | HT29 colon | DU-145 prostate | K-562 leukemia | OVCAR-8 ovarian | SF-268 CNS | SK-MEL-2 melanoma | SK-MEL-28 melanoma | HCT-15 colon | LOX IMVI melanoma | NCI-H23 lung | OVCAR-4 ovarian | HOP-62 NSCLC | OVCAR-5 ovarian | UACC-257 melanoma | SN12C renal | A549 NSCLC | U251 CNS | NCI/ADR-RES ovarian | TK-10 renal | SK-MEL-5 melanoma | HCC-2998 colon | UACC-62 melanoma | MDA-N

Reference: PubChem BioAssay (NCI)
